The results in this text go back to patent US20250221966A1, “RXFP1 AGONISTS” (BRISTOL-MYERS SQUIBB COMPANY, priority 2021, published 2025).

For the assay, the target named is T1, human RXFP1 (Homo sapiens, UniProt Q9HBX9).
T1 construct: expressed in transfected cells
T1 sequence (Q9HBX9 1-757): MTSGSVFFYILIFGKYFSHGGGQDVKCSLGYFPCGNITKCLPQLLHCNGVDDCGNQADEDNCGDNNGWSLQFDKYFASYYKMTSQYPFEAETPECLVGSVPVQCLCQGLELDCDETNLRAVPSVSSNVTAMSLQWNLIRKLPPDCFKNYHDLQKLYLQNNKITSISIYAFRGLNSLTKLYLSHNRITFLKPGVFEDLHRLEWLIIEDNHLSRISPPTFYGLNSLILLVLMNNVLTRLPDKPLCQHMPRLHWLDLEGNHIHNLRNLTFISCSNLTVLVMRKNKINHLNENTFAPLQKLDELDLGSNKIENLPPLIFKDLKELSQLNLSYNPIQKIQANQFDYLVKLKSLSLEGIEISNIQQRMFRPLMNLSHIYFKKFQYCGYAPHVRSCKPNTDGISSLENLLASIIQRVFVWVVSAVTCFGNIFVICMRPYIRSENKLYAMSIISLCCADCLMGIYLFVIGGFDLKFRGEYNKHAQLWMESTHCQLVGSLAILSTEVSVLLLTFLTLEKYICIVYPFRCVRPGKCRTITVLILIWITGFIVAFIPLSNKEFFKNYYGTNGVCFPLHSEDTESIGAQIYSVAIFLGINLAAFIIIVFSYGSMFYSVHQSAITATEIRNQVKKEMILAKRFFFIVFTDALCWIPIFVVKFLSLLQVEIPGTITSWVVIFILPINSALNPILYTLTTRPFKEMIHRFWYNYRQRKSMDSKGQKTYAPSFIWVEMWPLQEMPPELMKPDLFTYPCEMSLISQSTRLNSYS
As to the kind of experiment: RXFP1 cAMP assay (hRXFP1 HEK293 cAMP assay, HTRF). The class given is cell-based. The settings on record: HEK293 cells stably expressing human RXFP1, 30 min at room temperature, read-out: cAMP hRXFP1 HEK293 Assay EC50. The procedure, abridged: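 hRXFP1-HEK293 stable line; HBSS + Ca/Mg, 20 mM HEPES, 0.05% BSA, 0.5 mM IBMX; cpd 0.010 nM–50 μM, 2% DMSO; 30 min RT; lysis, HTRF cAMP detection; 4-PL fit.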
For orientation: Cyclic AMP is a second messenger, typically raised through Gs and lowered through Gi signalling.
Turning to `COc1ccc(-c2cc(C3=NOC4CC(CO)CC34)ccc2F)cc1C(=O)N[C@H]1[C@@H](C(=O)Nc2ccc(F)c(C(F)(F)F)c2)[C@H]2CC[C@@H]1/C2=C\C1CCCC1` (stereo partly shown) [compound 951], the EC50 worked out at 1 nM.

For `COc1ccc(C2=NOC3CC(C(O)C(F)(F)F)CC23)cc1C(=O)N[C@H]1[C@@H](C(=O)Nc2ccc(F)c(C(F)(F)F)c2)[C@H]2CC[C@@H]1/C2=C\C1CC1` (stereo partly shown) [compound 853], the half-maximal effective concentration (EC50) is 3.6 nM.

As to `COc1ccc(-c2cc(C(=O)O)ccc2F)cc1C(=O)N[C@@H]1C2CCC(/C2=C/C2CC2)[C@@H]1C(=O)NC1CCC1` (stereo partly shown) [compound 202], the EC50 worked out at 180 nM.

Regarding `COc1ccc(C2=NOC(CO)C2CO)cc1C(=O)N[C@H]1[C@@H](C(=O)Nc2ccc(F)c(C(F)(F)F)c2)[C@H]2CC[C@@H]1/C2=C\C1CC1` (single isomer, unassigned) [compound 481], the EC50 was determined as 6.7 nM.

As to `COc1ccc(-c2cc(C(OC(=O)NC3CCC3)C(F)F)ccc2F)cc1C(=O)N[C@@H]1C2CCC(/C2=C/C2CC2)[C@@H]1C(=O)Nc1ccc(F)c(C(F)(F)F)c1` (stereo partly shown) [compound 231], the EC50 is 1 nM.

For the compound `COc1c(F)cc(C2=NOC3CC(CO)CC23)cc1C(=O)N[C@H]1[C@@H](C(=O)NC23CC(C)(C2)C3)[C@H]2CC[C@@H]1/C2=C\C1CC1` (stereo partly shown) [compound 773], the EC50 turned out to be 3.9 nM.

`COc1ccc(-c2ccc(C(=O)N(C)C)cc2F)cc1C(=O)N[C@@H]1C2CCC(/C2=C/c2ccccc2)[C@@H]1C(=O)Nc1ccc(F)c(C(F)(F)F)c1` (stereo partly shown) [compound 195]: the EC50 was found to be 29 nM.

Consider `CCC/C=C1\[C@H]2CC[C@@H]1[C@H](C(=O)Nc1ccc(F)c(C(F)(F)F)c1)[C@@H]2NC(=O)c1cc(C2=NOC3CC(CO)CC23)cc(F)c1OC` (stereo partly shown) [compound 793], for which the EC50 was 2.2 nM.

Turning to `COc1ccc(C2=NOC(C(=O)O)(C(C)(C)C)C2)cc1C(=O)N[C@H]1[C@@H](C(=O)Nc2ccc(F)c(C(F)(F)F)c2)[C@H]2CC[C@@H]1/C2=C\C(F)(F)F` (stereo partly drawn) [Example 397, 5-(tert-butyl)-3-(3-(((1R,2R,3S,4R,Z)-3-((4-fluoro-3-(trifluoromethyl)phenyl)carbamoyl)-7-(2,2,2-trifluoroethylidene)bicyclo[2.2.1]heptan-2-yl)carbamoyl)-4-methoxyphenyl)-4,5-dihydroisoxazole-5-carboxylic acid], the EC50 came to 912 nM.

For `COc1ccc(C2=NOC3COCC23)cc1C(=O)N[C@H]1[C@@H](C(=O)NC2CCC2)[C@H]2CC[C@@H]1/C2=C\C1CC1` (stereo partly shown) [compound 635], the EC50 came to 191 nM.

For `COc1ccc(C2=NOC3C(O)CC(O)C23)cc1C(=O)N[C@H]1[C@@H](C(=O)Nc2ccc(F)c(C(F)(F)F)c2)[C@H]2CC[C@@H]1/C2=C\C1CC1` (single isomer, unassigned) [compound 680], the EC50 stood at 582 nM.

Regarding `COc1ccc(C2=NO[C@H]3[C@@H]2[C@@H](O)C[C@H]3O)cc1C(=O)N[C@H]1[C@@H](C(=O)Nc2ccc(F)c(C(F)(F)F)c2)[C@H]2CC[C@@H]1/C2=C\C1CC1` (single isomer, unassigned) [compound 539], the EC50 stood at 29.3 nM.

In the case of `COc1ccc(C2=NOC3COCC23)cc1C(=O)N[C@H]1[C@@H](C(=O)NC2CCC(C(F)(F)F)C2)[C@H]2CC[C@@H]1/C2=C\C1CC1` (single isomer, unassigned) [Example 589], the EC50 was 83.5 nM.

For the compound `COc1ccc(C2=NOC3COCC23)cc1C(=O)N[C@H]1[C@@H](C(=O)NCC2CCCC2)[C@H]2CC[C@@H]1/C2=C\C1CC1` (stereo partly shown) [compound 592], the EC50 was 87.1 nM.

Turning to `COc1ccc(-c2cc(C(=O)O)ccc2F)cc1C(=O)N[C@@H]1C2CCC(/C2=C/C2CC2)[C@@H]1C(=O)NC(C)c1cc(F)ccc1F` (stereo partly shown) [compound 307], the EC50 worked out at 958 nM.

In the case of `C[C@@H](NC(=O)[C@@H]1[C@H](NC(=O)c2cc(C3=NOC4CC(CO)CC34)cc(F)c2OCC2CC2)[C@@H]2CC[C@H]1/C2=C/C1CC1)C1(C)CC1` (stereo partly shown) [compound 758], the EC50 is 0.9 nM.

Take `COc1ccc(-c2cc(C3=NOC4CC(CO)CC34)ccc2F)cc1C(=O)N[C@H]1[C@@H](C(=O)Nc2ccc(F)c(C(F)(F)F)c2)[C@H]2CC[C@@H]1/C2=C\C1CC1` (stereo partly shown) [compound 953]: the EC50 worked out at 7 nM.

`CC(C)=C1C2CCC1[C@H](C(=O)Nc1ccc(F)c(C(F)(F)F)c1)[C@@H]2NC(=O)c1ccccc1N(C)C` (stereo partly shown) [compound 119]: the EC50 was 3900 nM.

For the compound `COc1ccc(C2=NOC(C(C)O)C2)cc1C(=O)N[C@H]1[C@@H](C(=O)Nc2ccc(F)c(C(F)(F)F)c2)[C@H]2CC[C@@H]1/C2=C\C1CC1` (single isomer, unassigned) [compound 595], the EC50 came out at 92.7 nM.

Take `COc1ccc(-c2cccc3c2CN(C(=O)C(C)(C)O)C3)cc1C(=O)N[C@@H]1C2CCC(/C2=C/C2CC2)[C@@H]1C(=O)Nc1ccc(F)c(C(F)(F)F)c1` (stereo partly shown) [compound 889]: the EC50 stood at 8.5 nM.

`COc1ccc(-c2cc(C(=O)OC(C)(C)C)ccc2F)cc1C(=O)N[C@@H]1C2CCC(/C2=C/C(F)(F)F)[C@@H]1C(=O)Nc1ccc(F)c(C(F)(F)F)c1` (stereo partly shown) [compound 294]: the EC50 stood at 47 nM.

Take `COc1ccc(N2CC(CO)CC2=O)cc1C(=O)N[C@H]1[C@@H](C(=O)Nc2ccc(F)c(C(F)(F)F)c2)[C@H]2CC[C@@H]1/C2=C\C1CC1` (stereo partly shown) [compound 526]: the EC50 was 22.4 nM.

For `COc1cc(C)c(C2=NOC3CC(CO)CC23)cc1C(=O)N[C@H]1[C@@H](C(=O)Nc2ccc(F)c(C(F)(F)F)c2)[C@H]2CC[C@@H]1C2CC1CC1` (stereo partly shown) [compound 739], the EC50 came out at 3.4 nM.

Turning to `COc1cc(F)c(F)cc1C(=O)N[C@@H]1C2CCC(/C2=C/C2=CCOCC2)[C@@H]1C(=O)Nc1ccc(F)c(C(F)(F)F)c1` (stereo partly shown) [compound 42], the EC50 worked out at 130 nM.

With `COc1c(Cl)cc(C2=NOC3CC(CO)CC23)cc1C(=O)N[C@H]1[C@@H](C(=O)Nc2ccc(F)c(C(F)(F)F)c2)[C@H]2CC[C@@H]1/C2=C\C1CC1` (stereo partly shown) [compound 798], the EC50 worked out at 4.7 nM.

On to `COc1cc(F)c(F)cc1C(=O)N[C@@H]1C2CCC(/C2=C/c2cnn(Cc3ccccc3)c2)[C@@H]1C(=O)Nc1ccc(F)c(C(F)(F)F)c1` (stereo partly shown) [compound 61], for which the EC50 was determined as 570 nM.

Take `COc1ccc(C2=NOC(CCO)C2)cc1C(=O)N[C@@H]1C2CCC(/C2=C/C2CCC2)[C@@H]1C(=O)Nc1ccc(F)c(C(F)(F)F)c1` (stereo partly shown) [compound 400]: the EC50 came to 31 nM.

As to `COc1ccc(-c2cc(C(N)C(=O)O)ccc2F)cc1C(=O)NC1[C@@H]2CC[C@@H](/C2=C/C2CC2)[C@@H]1C(=O)Nc1ccc(F)c(C(F)(F)F)c1` (stereo partly shown) [compound 969], the 50% effective concentration (EC50) was determined as 3.6 nM.

Consider `COc1ccc(C2=NOC3COCC23)cc1C(=O)N[C@H]1[C@@H](C(=O)NCc2ccccc2C2CC2)[C@H]2CC[C@@H]1/C2=C\C1CC1` (stereo partly shown) [compound 606], for which the EC50 stood at 121 nM.

In the case of `COc1ccc(-c2ccnc(N3CCOCC3)c2F)cc1C(=O)N[C@@H]1C2CCC(/C2=C/C2CC2)[C@@H]1C(=O)Nc1ccc(F)c(C(F)(F)F)c1` (stereo partly shown) [compound 274], the EC50 is 16 nM.

Regarding `COc1ccc(C2=NOC3COCC23)cc1C(=O)N[C@H]1[C@@H](C(=O)NCc2cccc(Cl)c2Cl)[C@H]2CC[C@@H]1/C2=C\C1CC1` (stereo partly shown) [compound 582], the EC50 was 74.9 nM.

On to `COC(=O)NC(C(=O)O)c1ccc(F)c(-c2ccc(OC)c(C(=O)N[C@@H]3C4CCC(/C4=C/C(F)(F)F)[C@@H]3C(=O)Nc3ccc(F)c(C(F)(F)F)c3)c2)c1` (stereo partly shown) [compound 186], for which the EC50 turned out to be 25 nM.

Turning to `COc1cc(F)c(F)cc1C(=O)N[C@@H]1C2CCC(/C2=C/C(C)(C)O)[C@@H]1C(=O)Nc1ccc(F)c(C(F)(F)F)c1` (stereo partly shown) [Example 65], the EC50 amounted to 2000 nM.

On to `COc1ccc(-c2cc(C(=O)NS(=O)(=O)C3CC3)ccc2F)cc1C(=O)N[C@@H]1C2CCC(C2=C(C)C)[C@@H]1C(=O)Nc1ccc(F)c(C(F)(F)F)c1` (stereo partly shown) [compound 157], for which the EC50 is 610 nM.

In the case of `COc1cc(F)c(F)cc1C(=O)N[C@@H]1C2CCC(/C2=C/c2cccnc2)[C@@H]1C(=O)Nc1ccc(F)c(C(F)(F)F)c1` (stereo partly shown) [compound 22], the EC50 came to 700 nM.

`COc1ccc(-c2cc([C@H](O)C(F)(F)F)ccc2F)cc1C(=O)NC1C2CCC(/C2=C/C2CC(F)(F)C2)C1C(=O)Nc1ccc(F)c(C(F)(F)F)c1` (stereo partly shown) [compound 358]: the EC50 amounted to 18 nM.

With `COc1ccc(-c2cc(C(O)C(=O)O)ccc2F)cc1C(=O)N[C@H]1[C@@H](C(=O)Nc2ccc(F)c(C(F)(F)F)c2)[C@H]2CC[C@@H]1/C2=C\CC1CC(F)(F)C1` (stereo partly drawn) [Example 352, 2-(3′-(((1R,2R,3S,4R,Z)-7-(2-(3,3-difluorocyclobutyl)ethylidene)-3-((4-fluoro-3-(trifluoromethyl)phenyl)carbamoyl)bicyclo[2.2.1]heptan-2-yl)carbamoyl)-6-fluoro-4′-methoxy-[1,1′-biphenyl]-3-yl)-2-hydroxyacetic acid], the EC50 came to 64 nM.

A word on the EC50: it is the concentration at which the effect is half-maximal.
